Test results reported in US5593985A, “Cephalosporin compounds” (priority 1994, dated 1997).
Converted amounts (≈) assume the structure as drawn. Like-named read-outs stand apart in the source and are kept apart here.

How the values were obtained:
[1] = system: Streptococcus pyogenes A 308; assay: MIC, standard strain 1; assay type: cell-based; conditions: A308, 18 h, read-out: Minimal Inhibitory Concentration(MIC)
Protocol: (§1) In order to illustrate antibiotic effectiveness of the compounds of the present invention, the minimal inhibitory concentrations (MIC's) of the representative compounds were determined against standard strains and compared with ceftazidime and cefpirome, which were used as control compounds.
(§2) The MIC values were taken by employing a two-fold dilution method: that is, two-fold serial dilutions of each of the test compounds were made from initial concentration of […]; each 1.5 ml of them was dispersed in 13.5 ml of Muller Hinton agar medium to adjust to […]; the standard test strain which had the concentration of 10^7 CFU/ml was inoculated by medium;and these were incubated at 37° C. for 18 hours.
(§3) The test used twenty kinds of standard test strains which induced urinary tract infections, respiratory organ infections, skin soft tissue infections, plasma infections, gastrointestinal infections, central nervous system infections, most of which produce β-lactamase. The standard test strains used are as follows:
1. Streptococcus pyogenes A 308

[2] = system: Streptococcus pyogenes A 77; assay: MIC, standard strain 2; assay type: cell-based; conditions: read-out: Minimal Inhibitory Concentration(MIC)
Protocol: as §1, §2, §3
2. Streptococcus pyogenes A 77

Streptococcus faecium 8b = assay: MIC, standard strain 3; assay type: cell-based; conditions: Enterococcus faecium, read-out: Minimal Inhibitory Concentration(MIC)
Protocol: as §1, §2, §3
3. Streptococcus faecium 8b

[3] = system: Staphylococcus aureus SG 511; assay: MIC, standard strain 4; assay type: cell-based; conditions: SG511, 18 h, read-out: Minimal Inhibitory Concentration(MIC)
Protocol: as §1, §2, §3
4. Staphylococcus aureus SG 511

[4] = system: Staphylococcus aureus 285; assay: MIC, standard strain 5; assay type: cell-based; conditions: read-out: Minimal Inhibitory Concentration(MIC)
Protocol: as §1, §2, §3
5. Staphylococcus aureus 285

[5] = system: Staphylococcus aureus 503; assay: MIC, standard strain 6; assay type: cell-based; conditions: read-out: Minimal Inhibitory Concentration(MIC)
Protocol: as §1, §2, §3
6. Staphylococcus aureus 503

Escherichia coli 0 55 = assay: MIC, standard strain 7; assay type: cell-based; conditions: 055, E. coli 0 55, two-fold dilution, Muller Hinton agar, 10^7 CFU/ml, 37° C., 18 hours, read-out: Minimal Inhibitory Concentration(MIC)
Protocol: as §1, §2
(§4) The test used twenty kinds of standard test strains which induced urinary tract infections, respiratory organ infections, skin soft tissue infections, plasma infections, gastrointestinal infections, central nervous system infections, most of which produce β-lactamase.

Escherichia coli DC 0 = assay: MIC, standard strain 8; assay type: cell-based; conditions: DC0, E. coli DC 0, two-fold dilution, Muller Hinton agar, 10^7 CFU/ml, 37° C., 18 hours, read-out: Minimal Inhibitory Concentration(MIC)
Protocol: as §1, §2, §4

Escherichia coli DC 2 = assay: MIC, standard strain 9; assay type: cell-based; conditions: DC2, E. coli DC 2, two-fold dilution, Muller Hinton agar, 10^7 CFU/ml, 37° C., 18 hours, read-out: Minimal Inhibitory Concentration(MIC)
Protocol: as §1, §2, §4

Escherichia coli TEM = assay: MIC, standard strain 10; assay type: cell-based; conditions: 18 h, read-out: Minimal Inhibitory Concentration(MIC)
Protocol: as §1, §2, §4

Escherichia coli 1507 E = assay: MIC, standard strain 11; assay type: cell-based; conditions: read-out: Minimal Inhibitory Concentration(MIC)
Protocol: as §1, §2, §4

[6] = system: Pseudomonas aeruginosa 9.027; assay: MIC, standard strain 12; assay type: cell-based; conditions: read-out: Minimal Inhibitory Concentration(MIC)
Protocol: as §1, §2, §3
12. Pseudomonas aeruginosa 9.027

[7] = system: Pseudomonas aeruginosa 1592 E; assay: MIC, standard strain 13; assay type: cell-based; conditions: read-out: Minimal Inhibitory Concentration(MIC)
Protocol: as §1, §2, §3
13. Pseudomonas aeruginosa 1592 E

[8] = system: Pseudomonas aeruginosa 1771; assay: MIC, standard strain 14; assay type: cell-based; conditions: read-out: Minimal Inhibitory Concentration(MIC)
Protocol: as §1, §2, §3
14. Pseudomonas aeruginosa 1771

[9] = system: Pseudomonas aeruginosa 1771M; assay: MIC, standard strain 15; assay type: cell-based; conditions: 18 h, read-out: Minimal Inhibitory Concentration(MIC)
Protocol: as §1, §2, §3
15. Pseudomonas aeruginosa 1771M

Salmonella typhimurium = assay: MIC, standard strain 16; assay type: cell-based; conditions: Salmonella enterica, read-out: Minimal Inhibitory Concentration(MIC)
Protocol: as §1, §2, §3
16. Salmonella typhimurium

[10] = system: Klebsiella aerogenes 1552 E; assay: MIC, standard strain 18; assay type: cell-based; conditions: read-out: Minimal Inhibitory Concentration(MIC)
Protocol: as §1, §2, §3
18. Klebsiella aerogenes 1552 E

[11] = system: Enterobacter cloacae P 99; assay: MIC, standard strain 19; assay type: cell-based; conditions: P99, 18 h, read-out: Minimal Inhibitory Concentration(MIC)
Protocol: as §1, §2, §3
19. Enterobacter cloacae P 99

[12] = system: Enterobacter cloacae 1321 E; assay: MIC, standard strain 20; assay type: cell-based; conditions: read-out: Minimal Inhibitory Concentration(MIC)
Protocol: as §1, §2, §3
20. Enterobacter cloacae 1321 E

MRSA(Yonsei Univ.) = assay: MIC, clinically separated strains; assay type: cell-based
Protocol: as §2

acute toxicity test = conditions: in vivo; acute toxicity, intravenous injection
Staphylococcus = conditions: compared with DQ-2556; cited from earlier work
Pseudomonas = conditions: compared with DQ-2556 or ceftazidime; cited from earlier work

For CO/N=C(\C(=O)N[C@@H]1C(=O)N2C(C(=O)[O-])=C(C[n+]3ccc(C(N)=S)c4c3CCC4)CS[C@H]12)c1csc(N)n1 [Example 5, 7-β-[(Z)-2-(2-aminothiazol-4-yl)-2-methoxyiminoacetamido]-3-[(2,3-cyclopenteno-4-thiocarbamoyl-1-pyridinium)methyl]-3-cephem-4-carboxylate], the MIC [1] was 4 µg/mL (≈ 6.97 µM), the MIC ([2]; A77, S. pyogenes A 77, two-fold dilution, Muller Hinton agar, 10^7 CFU/ml, 37° C., 18 hours) was 2 µg/mL (≈ 3.49 µM) and the MIC (Streptococcus faecium 8b; S. faecium 8b, two-fold dilution, Muller Hinton agar, 10^7 CFU/ml, 37° C., 18 hours) was 12500 µg/mL (≈ 21800 µM). For the same molecule, the MIC [3] was 781 µg/mL (≈ 1360 µM), the MIC ([4]; Staphylococcus aureus, S. aureus 285, two-fold dilution, Muller Hinton agar, 10^7 CFU/ml, 37° C., 18 hours) was 1560 µg/mL (≈ 2720 µM) and the MIC ([5]; Staphylococcus aureus, S. aureus 503, two-fold dilution, Muller Hinton agar, 10^7 CFU/ml, 37° C., 18 hours) was 391 µg/mL (≈ 682 µM). For the same molecule, the MIC (Escherichia coli 0 55) was 49 µg/mL (≈ 85.4 µM), the MIC (Escherichia coli DC 0) was 98 µg/mL (≈ 171 µM) and the MIC (Escherichia coli DC 2) was 25 µg/mL (≈ 43.6 µM). It also gave an MIC (Escherichia coli TEM) of 98 µg/mL (≈ 171 µM), an MIC (Escherichia coli 1507 E; E. coli 1507 E, two-fold dilution, Muller Hinton agar, 10^7 CFU/ml, 37° C., 18 hours) of 98 µg/mL (≈ 171 µM) and an MIC ([6]; Pseudomonas aeruginosa, P. aeruginosa 9.027, two-fold dilution, Muller Hinton agar, 10^7 CFU/ml, 37° C., 18 hours) of 6250 µg/mL (≈ 10900 µM). The MIC ([7]; P. aeruginosa 1592 E, two-fold dilution, Muller Hinton agar, 10^7 CFU/ml, 37° C., 18 hours) was 3120 µg/mL (≈ 5450 µM), the MIC ([8]; Pseudomonas aeruginosa, P. aeruginosa 1771, two-fold dilution, Muller Hinton agar, 10^7 CFU/ml, 37° C., 18 hours) was 1560 µg/mL (≈ 2720 µM) and the MIC [9] was 391 µg/mL (≈ 682 µM). It also gave an MIC (Salmonella typhimurium; S. typhimurium, two-fold dilution, Muller Hinton agar, 10^7 CFU/ml, 37° C., 18 hours) of 49 µg/mL (≈ 85.4 µM), an MIC ([10]; K. aerogenes 1552 E, two-fold dilution, Muller Hinton agar, 10^7 CFU/ml, 37° C., 18 hours) of 49 µg/mL (≈ 85.4 µM) and an MIC [11] of 6250 µg/mL (≈ 10900 µM). For the same molecule, the MIC ([12]; E. cloacae 1321 E, two-fold dilution, Muller Hinton agar, 10^7 CFU/ml, 37° C., 18 hours) was 13 µg/mL (≈ 22.7 µM), the “antibiotic activities against MRSA(Yonsei Univ.), in words” value (MRSA(Yonsei Univ.)) was “unexpectedly potent antibiotic activities” and the LD50 (acute toxicity test) was over 3000 mg/kg.

Molecule CC(C)(O/N=C(\C(=O)N[C@@H]1C(=O)N2C(C(=O)[O-])=C(C[n+]3ccccc3)CS[C@H]12)c1csc(N)n1)C(=O)O [ceftazidime, reference compound] has an MIC [1] of 98 µg/mL (≈ 179 µM), an MIC ([2]; A77, 18 h) of 49 µg/mL (≈ 89.6 µM) and an MIC (Streptococcus faecium 8b; 8B, 18 h) of 100000 µg/mL (≈ 183000 µM). It also gave an MIC [3] of 12500 µg/mL (≈ 22900 µM), an MIC ([4]; Staphylococcus aureus, 285, 18 h) of 12500 µg/mL (≈ 22900 µM) and an MIC ([5]; Staphylococcus aureus, 503, 18 h) of 98 µg/mL (≈ 179 µM). For the same molecule, the MIC (Escherichia coli 0 55) was 98 µg/mL (≈ 179 µM), the MIC (Escherichia coli DC 0) was 98 µg/mL (≈ 179 µM) and the MIC (Escherichia coli DC 2) was 98 µg/mL (≈ 179 µM). For the same molecule, the MIC (Escherichia coli TEM) was 195 µg/mL (≈ 357 µM), the MIC (Escherichia coli 1507 E; 1507E, 18 h) was 195 µg/mL (≈ 357 µM) and the MIC ([6]; Pseudomonas aeruginosa, 9.027, 18 h) was 3120 µg/mL (≈ 5720 µM). The MIC ([7]; 1592E, 18 h) was 781 µg/mL (≈ 1430 µM), the MIC ([8]; Pseudomonas aeruginosa, 1771, 18 h) was 391 µg/mL (≈ 715 µM) and the MIC [9] was 98 µg/mL (≈ 179 µM). For the same molecule, the MIC (Salmonella typhimurium; TYPHIMURIUM, 18 h) was 195 µg/mL (≈ 357 µM), the MIC ([10]; 1552E, 18 h) was 98 µg/mL (≈ 179 µM) and the MIC [11] was 100000 µg/mL (≈ 183000 µM). For the same molecule, the MIC ([12]; 1321E, 18 h) was 25 µg/mL (≈ 45.7 µM), the “activity against Staphylococcus, in words” value (Staphylococcus) was “relatively low activity against Staphylococcus” and the “activity against Pseudomonas, in words” value (Pseudomonas) was “higher activity against Pseudomonas”.
